Here are results for 3 molecules from US4435404A, “Carbostyril derivatives” (priority 1980, dated 1984).

Like-named read-outs stand apart in the source and are kept apart here.

Data set [1] has as its system ADP-induced aggregation in rabbit platelet. Description: Inhibition effect on ADP-induced aggregation in rabbit platelet. The data set is classed as cell-based. The settings on record: Oryctolagus cuniculus, Platelet; for inhibition at 100 µM: concentration of the test compound solution 10^-4 mole. How it is done: (§1) The platelet aggregation inhibitory effect is measured by using AG-II aggregometer (manufactured by Bryston Manufacturing Co.). The blood sample used for the test is a 1/9 (by volume) mixture of sodium citrate and whole blood collected from rabbit. Said sample is subjected to 10-minute centrifugal separation at 1,000 r.p.m. to obtain a platelet rich plasma (PRP). The thus obtained PRP is separated, and the remaining blood sample is further subjected to 15-minute centrifugal separation at 3,000 r.p.m. to obtain a platelet poor plasma (PPP).
(§2) The number of platelets in the PRP is counted by the Brecher-Clonkite Method, and the PRP is diluted with the PPP to prepare a PRP sample with platelet concentration of 300,000/mm^3 for the adenosine diphosphate (ADP)-induced aggregation test. There is also prepared a PRP sample with platelet concentration of 450,000/mm^3 for the collagen-induced aggregation test.
(§3) 0.6 Milliliter of said PRP sample is added into 0.01 ml of a solution of a test compound of a predetermined concentration and the mixture is placed in a 37° C. thermostat for one minute. Then 0.07 ml of an ADP or collagen solution is added to the mixture. Transmittance of this mixture is determined and the change of transmittance is recorded by using the aggregometer at stirrer speed of 1,100 r.p.m. […] The ADP solution is adjusted to a concentration of 7.5×10^-5 M, and the collagen solution is prepared by triturating 100 mg of collagen with 5 ml of said buffer and the supernatant is used as collagen inducer. Acetylsalicylic acid is used as control for the ADP-induced aggregation test and the collagen-induced aggregation test, respectively. The platelet aggregation inhibitory effect is measured in terms of percent inhibition with respect to the aggregation rate of the controls. The aggregation rate is calculated from the following formula:
(§4) Aggregation rate=[(c-a)/(b-a)]×100
(§5) b: transmittance of PRP containing a test compound and an aggregation inducer

Another data set has as its system Wistar strain male rats. Put plainly: Test of increasing effect of heart rate. The data set is classed as in vivo, rat. The settings on record: 30 mg/kg oral, 60 minutes after the administration. How it is done:
Wistar strain male rats, having 180-230 g of body weight, were abstained from food for 24 hours, the electrocardiograms introduced from the second induction period were recorded on oscillograph. The heart rate was calculated from the electrocardiograms by observing them for 10 seconds several times. […] 60 Minutes after the administration, the heart rate was measured and increasing effect of the heart rate was calculated. Generally, an average heart rate of an usual Wistar strain male rat is about 320 beat/minute.

The test system of data set [2] is collagen-induced aggregation in rabbit platelet. Put plainly: Inhibition effect on collagen-induced aggregation in rabbit platelet. The data set is classed as cell-based. The settings on record: Oryctolagus cuniculus, Platelet, read-out: Inhibition effect on collagen-induced aggregation. How it is done:
as §1, §2, §3, §4, §5

Data set [3] has as its target T1, cyclic AMP phosphodiesterase (Oryctolagus cuniculus, UniProt G1ST54).
T1 construct: the supernatant was collected to use it as a crude enzyme solution; from tissue; host or cells: rabbit platelets (from platelet-rich plasma)
T1 sequence (G1ST54 1-1128): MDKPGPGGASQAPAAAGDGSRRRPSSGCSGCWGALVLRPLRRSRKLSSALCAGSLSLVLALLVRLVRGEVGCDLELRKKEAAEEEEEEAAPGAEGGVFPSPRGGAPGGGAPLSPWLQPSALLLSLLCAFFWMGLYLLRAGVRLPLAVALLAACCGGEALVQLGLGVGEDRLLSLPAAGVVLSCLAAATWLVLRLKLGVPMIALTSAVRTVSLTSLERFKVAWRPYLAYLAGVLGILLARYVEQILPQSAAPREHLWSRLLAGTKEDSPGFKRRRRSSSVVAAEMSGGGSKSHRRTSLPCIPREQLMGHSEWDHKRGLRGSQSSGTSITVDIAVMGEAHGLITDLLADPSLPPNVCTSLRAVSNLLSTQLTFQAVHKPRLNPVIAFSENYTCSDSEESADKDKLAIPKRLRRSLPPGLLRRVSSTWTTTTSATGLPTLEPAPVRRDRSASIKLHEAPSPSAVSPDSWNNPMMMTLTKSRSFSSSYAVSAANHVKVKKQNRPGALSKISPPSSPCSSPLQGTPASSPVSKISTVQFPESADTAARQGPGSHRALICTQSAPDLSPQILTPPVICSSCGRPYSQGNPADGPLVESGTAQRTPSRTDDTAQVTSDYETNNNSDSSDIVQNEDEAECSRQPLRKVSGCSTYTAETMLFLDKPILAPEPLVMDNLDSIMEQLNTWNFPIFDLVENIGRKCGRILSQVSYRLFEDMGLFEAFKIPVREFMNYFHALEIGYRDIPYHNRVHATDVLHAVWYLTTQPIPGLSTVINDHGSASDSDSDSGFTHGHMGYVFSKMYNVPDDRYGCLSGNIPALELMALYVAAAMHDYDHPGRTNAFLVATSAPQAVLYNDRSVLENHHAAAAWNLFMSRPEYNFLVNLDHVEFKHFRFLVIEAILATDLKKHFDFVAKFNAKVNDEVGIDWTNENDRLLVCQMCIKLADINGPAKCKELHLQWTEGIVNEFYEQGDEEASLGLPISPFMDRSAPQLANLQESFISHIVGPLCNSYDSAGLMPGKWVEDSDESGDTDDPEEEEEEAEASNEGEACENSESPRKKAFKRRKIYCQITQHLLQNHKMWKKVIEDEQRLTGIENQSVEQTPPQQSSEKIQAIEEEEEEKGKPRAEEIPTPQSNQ
Description: Obstructive action against cyclic AMP phosphodiesterase. It is filed as biochemical. The conditions noted are these: rabbit platelet enzyme, 30° C., 20 minutes. How it is done:
That is, for determining the obstructive activity against cyclic AMP phosphodiesterase, 10 ml of a solution obtained by adding 1 mmol of MgCl2 into 50 mmol of tris-hydrochloric acid buffer with pH 7.4 was added to the platelets obtained by further centrifuging the above-said rabbit PRP at 3,000 r.p.m. for 10 minutes, and the suspended platelets were ground by a Teflon potter type homogenizer. This was followed by two times of freezing and thawing treatment and 300-second fracturing with 200 watt supersonic waves. After additional 60-minute centrifugation with 100,000 G, the supernatant was collected to use it as a crude enzyme solution.
10 Milliliters of this crude buffer solution was added to a 1.5×20 cm DEAE-cellulose column which has previously been buffered with 50 mM of tris-acetate buffer (pH 6.0), followed by washing and elution with 30 ml of 50 mM tris-acetate buffer, and this buffer solution was subjected to linear gradient elution with 0 to 0.5 moles of sodium acetate-tris-acetatebuffer (total amount of elute was 300 ml.). The flow rate was 0.5 ml/min, and 5 ml of each fraction was batched out. […] This fraction was used as cyclic AMP phosphodiesterase.
0.1 Milliliter of an aqueous solution of each test compound of a specified concentration was mixed with 40 mmol of tris-hydrochloric acid buffer (pH 8.0, containing 50 μg of cow serum albumin and 4 mmol of MgCl2) containing predetermined 1.0 μmol of cyclic AMP (tritium cyclic AMP), and 0.2 ml of this mixed solution was used as substrate solution.
0.2 Milliliter of the above-prepared cyclic AMP phosphodiesterase of a predetermined concentration was added to said substrate solution and the mixture was reacted at 30° C. for 20 minutes, producing tritium 5'-AMP from the tritium cyclic AMP.
The reaction system was then immersed in boiling water for 2 minutes to stop the reaction, and then this reaction solution was cooled in ice water and, for converting the produced tritium 5'-AMP into tritium adenosine, the solution was added with 0.05 ml (1 mg/ml) of snake poison as 5'-nucleotidase and reacted at 30° C. for 10 minutes. The whole amount of this reaction solution was then added to a cation exchange resin (AG 500 W×4, 200-400 meshes, manufactured by Bio-Rad Co., column size: 0.5×1.5 cm), and the produced tritium anodesine alone was allowed to combine, washed with 6 ml of distilled water and eluted with 1.5 ml of 3 N-ammonia water. The whole quantity of the elutant was added with 10 ml of a triton-toluene type scintillator and the produced tritium adenosine was measured by a liquid scintillation counter to determine the phosphodiesterase activity.
In this way, the phosphodiesterase activation value (Vs) of the test compounds of the respective concentrations was determined, and the phosphodiesterase obstruction rate (%) was determined from said activation value (Vs) and control value (Vc) (obtained from water not containing any test compound) from the following formula: [formula] Known 1-methyl-3-isobutylxanthine was used as control.

A further data set is described as follows: Acute Toxicity Test. The settings on record: mouse, in vivo; male mice, oral administration. As to the method: The test compounds were administered orally to the mice and LD50 (mg/kg) of the compounds was determined.
Where [4] appears, read: concentration of the test compound solution 10^-5 mole, read-out: Inhibition effect on ADP-induced aggregation.
The mark [5] stands for this setting: concentration of the test compound solution 10^-6 mole, read-out: Inhibition effect on ADP-induced aggregation.
Where [6] appears, read: concentration of the test compound solution 10^-5 mole.
[7] abbreviates: concentration of the test compound solution 10^-6 mole.
The mark [8] stands for this setting: read-out: Inhibition effect on ADP-induced aggregation.

Broadly, the inhibition is the share of the control response that was lost under treatment. In general, IC50 refers to the concentration that inhibits the measured activity by half. The low end stands for inhibition by little substance, the high end for a need for much substance. In general, LD50 refers to the dose expected to kill half of the subjects tested. A low value points to greater toxicity. Molecule `CN(CC1CCCCO1)C(=O)CCCOc1ccc2[nH]c(=O)ccc2c1` (stereo not drawn) [No. 6, 6-{3-[N-Methyl-N-(2-tetrahydropyranylmethyl)aminocarbonyl]propoxy}carbostyril] returned an inhibition at 100 µM in data set [1] of 75%. Besides, the inhibition at 10 µM in data set [1] (setting [4]) was determined as 24.6%; in data set [2] (setting [6]), 48.1%. Further, the values for the inhibition at 1 µM in data set [1] (setting [5]) and in data set [2] (setting [7]) were 14.7% and 3.8%, respectively. For the same molecule, the “Increasing effect of heart rate” value in the data set on Wistar strain male rats was found to be 40 Beat/min. In data set [3], this molecule had an IC50 of 52 nM. Further, the LD50 in the data set “Acute Toxicity Test” was greater than 1000 mg/kg.

On to `CN(C(=O)CCCOc1ccc2[nH]c(=O)ccc2c1)C1CCCCC1` [No. 39, 6-[3-(N--Methyl-N--cyclohexylaminocarbonyl)-propoxy]carbostyril, reference compound], for which, in data set [1] (setting [8]), the inhibition at 0.1 µM amounted to 32.8%, the inhibition at 1 µM is 62.1% and the inhibition at 10 µM was 91.7%. In addition, in the data set on Wistar strain male rats, the “Increasing effect of heart rate” value is 104 Beat/min. Moreover, in data set [2], the inhibition at 0.1 µM is 57%, the inhibition at 1 µM was 90.2% and the inhibition at 10 µM came out at 90.5%. For the same molecule, the concentration for half-maximal inhibition (IC50) in data set [3] amounted to 16 nM.

The molecule `O=C(CCCOc1ccc2[nH]c(=O)ccc2c1)N1CCN(c2ccccc2)CC1` [No. 14, 6-[3-(4-Phenyl-1-piperazinylcarbonyl)propoxy]carbostyril] yielded an inhibition at 100 µM in data set [1] of 100%. For the same molecule, the inhibition at 10 µM in data set [1] (setting [4]) is 87.7%; in data set [2] (setting [6]), 100%. In addition, the figures for the inhibition at 1 µM in data set [1] (setting [5]) and in data set [2] (setting [7]) were 15.7% and 31%, respectively. The “Increasing effect of heart rate” value in the data set with Wistar strain male rats was 32 Beat/min. Moreover, in data set [3], the half-inhibitory concentration (IC50) is 52 nM. Also, the LD50 in “Acute Toxicity Test” is greater than 1000 mg/kg.
